The target of assay [1] is T1, Poly [ADP-ribose] polymerase tankyrase-1 (Homo sapiens, UniProt O95271).
T1 sequence (O95271 whole entry): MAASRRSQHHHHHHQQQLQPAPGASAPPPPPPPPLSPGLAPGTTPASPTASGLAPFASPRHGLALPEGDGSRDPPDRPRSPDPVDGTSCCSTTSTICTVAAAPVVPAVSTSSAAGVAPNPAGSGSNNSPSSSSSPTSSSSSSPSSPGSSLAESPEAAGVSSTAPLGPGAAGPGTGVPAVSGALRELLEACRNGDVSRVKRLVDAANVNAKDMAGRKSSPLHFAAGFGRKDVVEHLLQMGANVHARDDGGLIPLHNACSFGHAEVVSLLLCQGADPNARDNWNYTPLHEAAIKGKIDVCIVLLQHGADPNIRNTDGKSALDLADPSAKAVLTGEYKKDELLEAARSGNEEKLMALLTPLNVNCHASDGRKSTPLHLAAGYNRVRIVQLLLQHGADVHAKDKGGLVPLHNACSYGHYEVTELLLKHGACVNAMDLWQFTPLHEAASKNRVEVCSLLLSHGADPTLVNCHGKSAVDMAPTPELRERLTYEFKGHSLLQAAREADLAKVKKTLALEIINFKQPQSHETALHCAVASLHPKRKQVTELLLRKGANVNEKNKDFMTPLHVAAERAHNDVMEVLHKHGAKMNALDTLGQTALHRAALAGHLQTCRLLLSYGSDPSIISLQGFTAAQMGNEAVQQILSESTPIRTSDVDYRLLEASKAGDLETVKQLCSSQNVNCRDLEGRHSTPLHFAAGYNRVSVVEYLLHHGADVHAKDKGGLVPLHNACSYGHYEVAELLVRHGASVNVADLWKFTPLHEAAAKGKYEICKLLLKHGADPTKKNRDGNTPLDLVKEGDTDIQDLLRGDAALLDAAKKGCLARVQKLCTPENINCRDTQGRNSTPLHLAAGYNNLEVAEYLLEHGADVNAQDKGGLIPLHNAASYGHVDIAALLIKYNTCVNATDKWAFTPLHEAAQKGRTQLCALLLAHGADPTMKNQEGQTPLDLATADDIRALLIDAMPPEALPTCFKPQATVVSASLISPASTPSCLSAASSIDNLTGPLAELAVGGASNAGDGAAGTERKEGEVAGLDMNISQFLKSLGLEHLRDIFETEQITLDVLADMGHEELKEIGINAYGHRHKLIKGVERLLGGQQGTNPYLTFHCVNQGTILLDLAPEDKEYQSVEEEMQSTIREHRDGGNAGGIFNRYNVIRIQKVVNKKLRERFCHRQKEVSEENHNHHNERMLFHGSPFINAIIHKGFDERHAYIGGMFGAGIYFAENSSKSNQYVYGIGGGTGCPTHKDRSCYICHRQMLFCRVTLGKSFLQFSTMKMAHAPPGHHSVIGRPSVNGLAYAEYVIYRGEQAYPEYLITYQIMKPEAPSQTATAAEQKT
Description: Inhibition of human TNKS1 by fluorescence analysis.

Assay [2] concerns the target Poly [ADP-ribose] polymerase 2 (Homo sapiens, UniProt Q9UGN5). Description: Inhibition of human ARTD2 by fluorescence analysis.
The target in assay [3] is T2, Protein mono-ADP-ribosyltransferase PARP12 (Homo sapiens, UniProt Q9H0J9).
T2 sequence (Q9H0J9 whole entry): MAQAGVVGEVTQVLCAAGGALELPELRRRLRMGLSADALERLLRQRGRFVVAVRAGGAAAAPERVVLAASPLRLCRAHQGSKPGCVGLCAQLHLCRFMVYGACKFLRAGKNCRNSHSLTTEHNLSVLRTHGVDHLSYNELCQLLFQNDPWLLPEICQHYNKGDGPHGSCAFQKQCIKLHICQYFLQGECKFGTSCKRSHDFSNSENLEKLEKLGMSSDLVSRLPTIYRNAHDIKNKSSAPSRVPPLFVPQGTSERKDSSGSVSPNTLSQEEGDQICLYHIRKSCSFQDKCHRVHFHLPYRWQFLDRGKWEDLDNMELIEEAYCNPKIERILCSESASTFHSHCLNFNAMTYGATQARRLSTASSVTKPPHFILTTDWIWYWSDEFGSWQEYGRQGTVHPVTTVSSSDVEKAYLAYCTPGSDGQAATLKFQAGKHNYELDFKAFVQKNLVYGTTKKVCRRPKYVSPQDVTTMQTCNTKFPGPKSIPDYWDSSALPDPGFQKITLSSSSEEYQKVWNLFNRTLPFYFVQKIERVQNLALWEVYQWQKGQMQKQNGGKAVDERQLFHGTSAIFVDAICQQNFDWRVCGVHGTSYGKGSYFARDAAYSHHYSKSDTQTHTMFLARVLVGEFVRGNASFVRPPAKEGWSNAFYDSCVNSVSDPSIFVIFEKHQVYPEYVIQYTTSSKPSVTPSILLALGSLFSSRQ
Nature of the assay: Inhibition of human ARTD12 by fluorescence analysis.

Poly [ADP-ribose] polymerase 2, sequence (Q9UGN5 whole entry): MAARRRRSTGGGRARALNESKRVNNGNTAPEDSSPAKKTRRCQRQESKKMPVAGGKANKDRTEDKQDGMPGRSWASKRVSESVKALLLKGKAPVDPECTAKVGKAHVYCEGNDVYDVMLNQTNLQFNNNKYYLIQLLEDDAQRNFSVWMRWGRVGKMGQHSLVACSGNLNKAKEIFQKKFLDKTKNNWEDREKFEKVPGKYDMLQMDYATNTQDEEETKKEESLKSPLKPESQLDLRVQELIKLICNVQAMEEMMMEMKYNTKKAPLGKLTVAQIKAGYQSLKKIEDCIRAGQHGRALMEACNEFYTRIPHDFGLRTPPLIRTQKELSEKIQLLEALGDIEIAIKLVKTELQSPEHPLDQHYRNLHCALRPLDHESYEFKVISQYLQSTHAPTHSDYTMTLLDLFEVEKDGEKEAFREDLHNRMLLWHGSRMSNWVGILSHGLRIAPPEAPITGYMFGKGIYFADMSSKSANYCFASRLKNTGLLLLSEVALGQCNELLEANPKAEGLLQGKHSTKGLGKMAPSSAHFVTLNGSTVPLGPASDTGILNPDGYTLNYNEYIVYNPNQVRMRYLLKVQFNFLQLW

As for `COc1ccc(C2(CNC(=O)c3ccc(NC(=O)c4ccco4)cc3Cl)CCOCC2)cc1`, the IC50 is 0.57 µM in assay [1], more than 100 µM in assay [2] and more than 10 µM in assay [3].

As usually defined, the IC50 is the midpoint of a concentration-inhibition curve. Read a high IC50 as weaker potency in that assay.

The values are drawn from ChEMBL document CHEMBL3751785, “Development and structural analysis of adenosine site binding tankyrase inhibitors” (Bioorg Med Chem Lett, 2016).
